# From the kinase profiling compilation of Christmann-Franck et al. (2016)
# Tests used:
# Assay in all cases: KINOMEscan competition binding
# Details in all cases: compound 10.0 µM
# TNIK (human) = TNIK (human) (UniProt Q9UKE5)
# MAP4K5 (human) = MAP4K5 (human) (UniProt Q9Y4K4)
# HIPK3 (human) = HIPK3 (human) (UniProt Q9H422)
# CIT (human) = CIT (human) (UniProt O14578)
# MAP3K1 (human) = MAP3K1 (human) (UniProt Q13233)
# GRK4 (human) = GRK4 (human) (UniProt P32298)
# MYO3B (human) = MYO3B (human) (UniProt Q8WXR4)
# CAMK2B (human) = CAMK2B (human) (UniProt Q13554)
# MYLK3 (human) = MYLK3 (human) (UniProt Q32MK0)
# [1] = target: JAK1 JH2 pseudokinase (human) (UniProt P23458)
# PRPF4B (human) = PRPF4B (human) (UniProt Q13523)
# RPS6KA6 KD1 (human) = RPS6KA6 KD1 (human) (UniProt Q9UK32)
# RPS6KA1 KD1 (human) = RPS6KA1 KD1 (human) (UniProt Q15418)
# NEK9 (human) = NEK9 (human) (UniProt Q8TD19)
# TNK1 (human) = TNK1 (human) (UniProt Q13470)
# PRKACB (human) = PRKACB (human) (UniProt P22694)
# PTK2 (human) = PTK2 (human) (UniProt Q05397)
# Sequence of PTK2 (human) (Q05397 whole entry, looked up): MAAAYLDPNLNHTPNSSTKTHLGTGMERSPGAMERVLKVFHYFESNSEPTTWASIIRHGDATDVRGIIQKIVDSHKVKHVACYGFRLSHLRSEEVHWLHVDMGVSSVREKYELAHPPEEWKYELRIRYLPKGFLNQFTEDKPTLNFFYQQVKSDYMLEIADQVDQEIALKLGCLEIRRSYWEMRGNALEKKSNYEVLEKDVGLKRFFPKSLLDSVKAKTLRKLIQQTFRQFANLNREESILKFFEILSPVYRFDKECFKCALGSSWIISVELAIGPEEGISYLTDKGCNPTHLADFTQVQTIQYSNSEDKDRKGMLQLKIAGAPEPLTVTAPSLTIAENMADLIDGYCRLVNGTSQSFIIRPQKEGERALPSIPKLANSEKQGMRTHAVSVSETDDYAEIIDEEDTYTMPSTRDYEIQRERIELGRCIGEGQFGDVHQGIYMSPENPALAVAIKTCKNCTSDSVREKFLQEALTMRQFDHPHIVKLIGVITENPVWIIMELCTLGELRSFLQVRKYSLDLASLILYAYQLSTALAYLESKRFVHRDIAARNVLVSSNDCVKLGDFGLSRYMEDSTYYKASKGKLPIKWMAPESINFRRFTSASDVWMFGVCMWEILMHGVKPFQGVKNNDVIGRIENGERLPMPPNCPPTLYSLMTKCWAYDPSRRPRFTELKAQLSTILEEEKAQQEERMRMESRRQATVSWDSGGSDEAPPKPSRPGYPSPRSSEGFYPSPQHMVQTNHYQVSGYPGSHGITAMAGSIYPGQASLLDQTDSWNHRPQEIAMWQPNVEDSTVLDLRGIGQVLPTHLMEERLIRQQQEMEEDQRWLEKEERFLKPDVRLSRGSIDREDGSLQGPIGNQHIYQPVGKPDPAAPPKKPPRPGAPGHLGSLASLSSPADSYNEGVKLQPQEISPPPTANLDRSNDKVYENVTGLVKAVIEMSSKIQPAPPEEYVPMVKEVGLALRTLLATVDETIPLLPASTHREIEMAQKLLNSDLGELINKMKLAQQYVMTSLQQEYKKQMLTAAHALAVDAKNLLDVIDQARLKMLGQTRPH
# IRAK4 (human) = IRAK4 (human) (UniProt Q9NWZ3)
# Sequence of IRAK4 (human) (Q9NWZ3 whole entry, looked up): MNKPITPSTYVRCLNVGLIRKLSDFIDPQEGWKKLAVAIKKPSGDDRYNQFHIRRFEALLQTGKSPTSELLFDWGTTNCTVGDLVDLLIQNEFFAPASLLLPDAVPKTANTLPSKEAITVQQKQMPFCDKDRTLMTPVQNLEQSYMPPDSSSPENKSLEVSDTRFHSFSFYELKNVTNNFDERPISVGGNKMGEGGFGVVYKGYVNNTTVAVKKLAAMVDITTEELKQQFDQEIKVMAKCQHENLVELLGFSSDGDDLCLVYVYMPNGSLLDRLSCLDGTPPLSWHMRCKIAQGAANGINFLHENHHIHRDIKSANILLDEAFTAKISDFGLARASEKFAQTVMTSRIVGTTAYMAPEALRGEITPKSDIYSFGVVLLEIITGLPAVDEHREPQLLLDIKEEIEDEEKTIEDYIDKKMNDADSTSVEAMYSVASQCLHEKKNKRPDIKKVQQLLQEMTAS
# CDK11B (human) = CDK11B (human) (UniProt P21127)
# Sequence of CDK11B (human) (P21127 whole entry, looked up): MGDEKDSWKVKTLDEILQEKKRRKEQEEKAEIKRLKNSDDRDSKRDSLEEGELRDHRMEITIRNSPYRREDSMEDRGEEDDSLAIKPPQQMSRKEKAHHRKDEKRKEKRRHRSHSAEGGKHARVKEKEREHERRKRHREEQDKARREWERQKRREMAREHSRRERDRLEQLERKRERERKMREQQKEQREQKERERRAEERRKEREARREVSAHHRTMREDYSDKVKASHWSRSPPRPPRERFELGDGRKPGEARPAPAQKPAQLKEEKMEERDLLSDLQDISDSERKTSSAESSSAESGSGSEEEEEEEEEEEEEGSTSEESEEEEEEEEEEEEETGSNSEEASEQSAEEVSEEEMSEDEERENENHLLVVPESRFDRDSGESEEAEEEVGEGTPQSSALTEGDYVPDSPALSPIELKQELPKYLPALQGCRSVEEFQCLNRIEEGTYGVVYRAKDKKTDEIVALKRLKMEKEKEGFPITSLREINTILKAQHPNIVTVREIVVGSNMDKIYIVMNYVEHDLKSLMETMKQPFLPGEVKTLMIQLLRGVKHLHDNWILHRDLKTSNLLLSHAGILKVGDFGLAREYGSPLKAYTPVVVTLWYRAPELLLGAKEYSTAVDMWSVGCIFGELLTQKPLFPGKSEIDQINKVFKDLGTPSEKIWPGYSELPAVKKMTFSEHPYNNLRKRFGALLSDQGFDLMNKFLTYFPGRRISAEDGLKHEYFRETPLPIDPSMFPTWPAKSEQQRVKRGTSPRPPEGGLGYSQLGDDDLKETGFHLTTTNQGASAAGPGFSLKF
# BMPR1A (human) = BMPR1A (human) (UniProt P36894)
# Sequence of BMPR1A (human) (P36894 whole entry, looked up): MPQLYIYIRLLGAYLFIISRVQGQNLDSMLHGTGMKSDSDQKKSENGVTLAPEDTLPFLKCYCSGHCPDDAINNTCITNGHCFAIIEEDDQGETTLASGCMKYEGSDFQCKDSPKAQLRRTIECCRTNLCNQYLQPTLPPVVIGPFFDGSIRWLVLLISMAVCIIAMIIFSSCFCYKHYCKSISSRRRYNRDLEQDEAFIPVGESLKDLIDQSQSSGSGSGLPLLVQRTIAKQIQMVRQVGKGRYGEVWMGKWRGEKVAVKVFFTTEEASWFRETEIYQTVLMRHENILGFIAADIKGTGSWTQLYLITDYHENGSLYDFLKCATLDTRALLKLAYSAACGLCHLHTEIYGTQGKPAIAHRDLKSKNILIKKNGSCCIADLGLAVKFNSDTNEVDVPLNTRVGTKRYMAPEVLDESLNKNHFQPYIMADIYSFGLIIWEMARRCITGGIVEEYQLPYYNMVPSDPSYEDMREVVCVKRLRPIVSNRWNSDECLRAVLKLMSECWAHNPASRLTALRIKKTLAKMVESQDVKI
# BTK (human) = BTK (human) (UniProt Q06187)
# LIMK2 (human) = LIMK2 (human) (UniProt P53671)
# Sequence of LIMK2 (human) (P53671 whole entry, looked up): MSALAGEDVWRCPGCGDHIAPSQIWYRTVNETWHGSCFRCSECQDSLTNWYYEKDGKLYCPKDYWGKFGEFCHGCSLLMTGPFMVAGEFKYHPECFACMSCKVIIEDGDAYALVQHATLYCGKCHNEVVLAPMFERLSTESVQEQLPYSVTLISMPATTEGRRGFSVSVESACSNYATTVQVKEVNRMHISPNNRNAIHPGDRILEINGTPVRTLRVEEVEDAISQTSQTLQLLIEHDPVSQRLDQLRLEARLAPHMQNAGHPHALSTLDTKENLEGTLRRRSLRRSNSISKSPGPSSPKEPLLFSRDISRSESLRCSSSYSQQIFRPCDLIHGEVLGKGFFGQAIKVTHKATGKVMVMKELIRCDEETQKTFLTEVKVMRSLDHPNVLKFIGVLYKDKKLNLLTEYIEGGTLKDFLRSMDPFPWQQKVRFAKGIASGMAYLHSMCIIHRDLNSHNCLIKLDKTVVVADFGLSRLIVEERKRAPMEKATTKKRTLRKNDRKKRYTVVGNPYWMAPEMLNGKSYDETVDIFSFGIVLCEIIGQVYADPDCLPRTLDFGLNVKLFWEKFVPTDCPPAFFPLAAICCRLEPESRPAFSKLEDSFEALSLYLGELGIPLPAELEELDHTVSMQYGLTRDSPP
# DAPK1 (human) = DAPK1 (human) (UniProt P53355)
# [2] = test system: FLT3 (human), P36888 [ITD]
# STK32B (human) = STK32B (human) (UniProt Q9NY57)
# RIPK1 (human) = RIPK1 (human) (UniProt Q13546)
# MAPK8 (human) = MAPK8 (human) (UniProt P45983)
# Sequence of MAPK8 (human) (P45983 whole entry, looked up): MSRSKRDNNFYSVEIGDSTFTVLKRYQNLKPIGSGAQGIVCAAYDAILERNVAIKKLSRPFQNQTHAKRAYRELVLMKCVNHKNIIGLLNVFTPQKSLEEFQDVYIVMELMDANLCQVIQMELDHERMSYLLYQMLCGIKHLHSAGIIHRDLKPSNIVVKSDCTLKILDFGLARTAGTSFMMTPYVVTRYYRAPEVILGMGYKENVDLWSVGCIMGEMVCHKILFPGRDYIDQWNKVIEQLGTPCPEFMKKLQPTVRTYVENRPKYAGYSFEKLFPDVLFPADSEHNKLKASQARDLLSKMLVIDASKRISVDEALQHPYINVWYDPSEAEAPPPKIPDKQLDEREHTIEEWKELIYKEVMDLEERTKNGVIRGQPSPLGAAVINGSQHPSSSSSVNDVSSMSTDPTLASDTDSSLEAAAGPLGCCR
# MATK (human) = MATK (human) (UniProt P42679)
# CDK4 CCND3 (human) = CDK4 CCND3 (human) (UniProt P11802+P30281)
# CAMKK2 (human) = CAMKK2 (human) (UniProt Q96RR4)
# SIK3 (human) = SIK3 (human) (UniProt Q9Y2K2)
# ACVR1 (human) = ACVR1 (human) (UniProt Q04771)
# PAK4 (human) = PAK4 (human) (UniProt O96013)
# CDK3 (human) = CDK3 (human) (UniProt Q00526)
# Sequence of CDK3 (human) (Q00526 whole entry, looked up): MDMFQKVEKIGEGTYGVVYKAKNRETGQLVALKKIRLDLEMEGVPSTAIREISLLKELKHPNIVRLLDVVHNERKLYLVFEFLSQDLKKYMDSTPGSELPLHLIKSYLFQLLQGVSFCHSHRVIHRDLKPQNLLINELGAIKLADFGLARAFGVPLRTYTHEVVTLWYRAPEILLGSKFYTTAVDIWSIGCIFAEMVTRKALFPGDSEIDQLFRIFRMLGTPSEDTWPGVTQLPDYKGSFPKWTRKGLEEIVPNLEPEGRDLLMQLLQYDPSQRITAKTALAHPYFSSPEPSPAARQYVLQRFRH
# PIM1 (human) = PIM1 (human) (UniProt P11309)
# MAP4K2 (human) = MAP4K2 (human) (UniProt Q12851)
# RPS6KA4 KD2 (human) = RPS6KA4 KD2 (human) (UniProt O75676)
# RPS6KA3 KD1 (human) = RPS6KA3 KD1 (human) (UniProt P51812)
# CHEK2 (human) = CHEK2 (human) (UniProt O96017)
# YES1 (human) = YES1 (human) (UniProt P07947)
# CDK16 (human) = CDK16 (human) (UniProt Q00536)
# TAOK3 (human) = TAOK3 (human) (UniProt Q9H2K8)
# Sequence of GRK4 (human) (P32298 whole entry, looked up): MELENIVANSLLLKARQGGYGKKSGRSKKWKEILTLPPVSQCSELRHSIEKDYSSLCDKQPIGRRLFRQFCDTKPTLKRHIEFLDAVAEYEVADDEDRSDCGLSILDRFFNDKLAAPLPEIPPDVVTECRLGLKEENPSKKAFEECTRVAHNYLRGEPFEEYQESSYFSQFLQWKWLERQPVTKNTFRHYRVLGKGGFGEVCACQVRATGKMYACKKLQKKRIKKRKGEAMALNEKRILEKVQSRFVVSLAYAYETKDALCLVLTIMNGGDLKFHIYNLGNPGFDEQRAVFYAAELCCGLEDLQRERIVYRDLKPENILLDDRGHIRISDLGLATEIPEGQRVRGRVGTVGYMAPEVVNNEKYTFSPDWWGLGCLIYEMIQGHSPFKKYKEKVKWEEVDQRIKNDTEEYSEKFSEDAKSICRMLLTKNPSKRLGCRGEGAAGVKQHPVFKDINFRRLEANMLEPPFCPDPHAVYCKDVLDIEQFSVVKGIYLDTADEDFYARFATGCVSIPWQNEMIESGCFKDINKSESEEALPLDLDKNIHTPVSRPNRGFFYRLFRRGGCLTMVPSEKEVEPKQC
compound,measurement,setting,value
Cc1cc([C@@H](C)Nc2ccccc2C(=O)O)c2nc(N3CCOCC3)cc(=O)n2c1,"kinase still bound, per cent of control",TNIK (human),97%
same,"kinase still bound, per cent of control",MAP4K5 (human),92%
same,"kinase still bound, per cent of control",HIPK3 (human),68%
same,"kinase still bound, per cent of control",CIT (human),88%
same,"kinase still bound, per cent of control",MAP3K1 (human),100%
same,"kinase still bound, per cent of control",GRK4 (human),80%
same,"kinase still bound, per cent of control",MYO3B (human),51%
same,"kinase still bound, per cent of control",CAMK2B (human),89%
same,"kinase still bound, per cent of control",MYLK3 (human),82%
same,"kinase still bound, per cent of control",[1],100%
same,"kinase still bound, per cent of control",PRPF4B (human),100%
same,"kinase still bound, per cent of control",RPS6KA6 KD1 (human),80%
same,"kinase still bound, per cent of control",RPS6KA1 KD1 (human),67%
same,"kinase still bound, per cent of control",NEK9 (human),94%
same,"kinase still bound, per cent of control",TNK1 (human),91%
same,"kinase still bound, per cent of control",PRKACB (human),62%
same,"kinase still bound, per cent of control",PTK2 (human),80%
same,"kinase still bound, per cent of control",IRAK4 (human),100%
same,"kinase still bound, per cent of control",CDK11B (human),100%
same,"kinase still bound, per cent of control",BMPR1A (human),79%
same,"kinase still bound, per cent of control",BTK (human),80%
same,"kinase still bound, per cent of control",LIMK2 (human),100%
same,"kinase still bound, per cent of control",DAPK1 (human),100%
same,"kinase still bound, per cent of control",[2],40%
same,"kinase still bound, per cent of control",STK32B (human),100%
same,"kinase still bound, per cent of control",RIPK1 (human),100%
same,"kinase still bound, per cent of control",MAPK8 (human),100%
same,"kinase still bound, per cent of control",MATK (human),57%
same,"kinase still bound, per cent of control",CDK4 CCND3 (human),62%
same,"kinase still bound, per cent of control",CAMKK2 (human),72%
same,"kinase still bound, per cent of control",SIK3 (human),87%
same,"kinase still bound, per cent of control",ACVR1 (human),100%
same,"kinase still bound, per cent of control",PAK4 (human),95%
same,"kinase still bound, per cent of control",CDK3 (human),92%
same,"kinase still bound, per cent of control",PIM1 (human),100%
same,"kinase still bound, per cent of control",MAP4K2 (human),97%
same,"kinase still bound, per cent of control",RPS6KA4 KD2 (human),83%
same,"kinase still bound, per cent of control",RPS6KA3 KD1 (human),100%
same,"kinase still bound, per cent of control",CHEK2 (human),100%
same,"kinase still bound, per cent of control",YES1 (human),100%
same,"kinase still bound, per cent of control",CDK16 (human),100%
same,"kinase still bound, per cent of control",TAOK3 (human),95%
